In patent publication US10526326B2, “Crystalline form and acetic acid adducts of palbociclib” (RATIOPHARM GMBH, priority 2015, dated 2020):
Values after ≈ are worked out from the molar mass of the structure shown. Where a name gives a salt, the structure may show the parent alone. One block for each compound: values may come before it.

Experiments:
[1] = cited from earlier work
[2] = Solubility determination in aqueous solvents at 37° C.; format: physicochemical; settings: for solubility at 60 min / solubility at 15 min: 37 °C, thermodynamic from solid
Protocol: Approximately 200 mg (exactly weighed) test substance was weighed into a glass vial, followed by addition of 2 mL solvent (water, 0.01M HCl, 20 mM NaOAc/HOAc pH 4.5, 50 mM KH2PO4 pH 6.8). A stirring bar was added, the vial was fixed in a block heater at 37° C. and the suspension was stirred with approximately 250 rpm. After 15 min and 1 hour samples were withdrawn, filtered through a 0.2 μm disposable filter, diluted with solvent and quantified by UHPLC/UV.

[3] = Solubility determination in organic solvents at room temperature; format: physicochemical; settings: chloroform, 23 °C, organic solvent or mixture, thermodynamic from solid, 23° C. (room temperature)
Protocol: Solubilities in organic solvents (methanol, acetone, chloroform, DMSO) were determined similarly at room temperature with the difference that the suspensions were not stirred but treated with a vortex mixer for 20 s.

[4] = Dynamic vapor sorption measurement; format: physicochemical; settings: for Diffractogram after DVS measurement versus initial: XRPD after humidity cycles
Protocol: Vapour sorption experiments were performed in the instrument SPSx-1 μ (Projekt Messtechnik, Ulm, Germany) at a temperature of 25° C., using the humidity cycles specified below: [table]

[5] = 50 mM KH2PO4 buffer, pH 6.8, aqueous buffer, 50 mM KH2PO4 (pH 6.8)
[6] = 25° C., humidity cycles 0-95% RH

Compound: CC(=O)c1c(C)c2cnc(Nc3ccc(N4CCNCC4)cn3)nc2n(C2CCCC2)c1=O [dihydrochloride]
Solubility in water (in words) [1]: good water solubility

Compound: CC(=O)c1c(C)c2cnc(Nc3ccc(N4CCNCC4)cn3)nc2n(C2CCCC2)c1=O [Palbociclib in form of the free base, 6-acetyl-8-cyclopentyl-5-methyl-2-{[5-(1-piperazinyl)-2-pyridinyl]amino}pyrido[2,3-d]pyrimidin-7(8H)-one]
Solubility under acidic conditions (in words) ([1]; at or below pH 4): good solubility
Solubility in water (in words) [1]: practically insoluble

Compound: CC(=O)c1c(C)c2cnc(Nc3ccc(N4CCNCC4)cn3)nc2n(C2CCCC2)c1=O [hydrochloride]
Solubility in water (in words) [1]: good water solubility

solubility at 60 min ([2]; 0.01M HCl, pH 2, simulated gastric fluid): 4300 µg/mL (≈ 9.61 mM)
solubility at 15 min ([2]; 20 mM NaOAc/HOAc buffer, pH 4.5, aqueous buffer, 20 mM NaOAc/HOAc (pH 4.5)): 16200 µg/mL (≈ 36.2 mM)
solubility at 15 min [2, 5]: 100 µg/mL (≈ 0.223 mM)
solubility at 60 min [2, 5]: 100 µg/mL (≈ 0.223 mM)
Solubility in aqueous solvents compared with Form A (in words) ([2]; aqueous solvents): comparable to that of Form A
solubility at 20 s [3]: 86100 µg/mL (≈ 192 mM)
Maximum water uptake [4, 6]: 1.3%
Sample weight change after the DVS measurement [4, 6]: −0.2%
Compound: CC(=O)c1c(C)c2cnc(Nc3ccc(N4CCNCC4)cn3)nc2n(C2CCCC2)c1=O [Palbociclib in present crystalline Form, 6-acetyl-8-cyclopentyl-5-methyl-2-{[5-(1-piperazinyl)-2-pyridinyl]amino}pyrido[2,3-d]pyrimidin-7(8H)-one]
Diffractogram after DVS measurement versus initial [4]: practically identical with the initial one

Sample weight change after the DVS measurement [4, 6]: −0.5%
Compound: CC(=O)O.CC(=O)c1c(C)c2cnc(Nc3ccc(N4CCNCC4)cn3)nc2n(C2CCCC2)c1=O [Palbociclib acetic acid adduct Form 1]
Diffractogram after DVS measurement versus initial [4]: practically identical with the initial one
